Data taken from patent US12139492B2 (Endotarget Inc., priority 2021, dated 2024).

Assays:
Assay type in all cases: cell-based
[1] = system: Mino cells; assay: Antiproliferative effect, MTS cell viability assay, Mino cells; conditions: Homo sapiens, MINO, Mino mantle cell lymphoma cells; read-out: IC50 (anti-proliferation) Mino cells
Outline: (§1)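 Readout was MTS-derived formazan absorbance (490 nm) reflecting metabolically active cells. Treatment lasted 72 h over a 0–10 μM range (0.001, 0.01, 0.1, 1, 10 μM) in JeKo-1 and Mino B-cell malignancy cells.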

[2] = system: JeKo-1 cells; assay: Antiproliferative effect, MTS cell viability assay, JeKo-1 cells; conditions: Homo sapiens; JeKo-1 mantle cell lymphoma cells; read-out: IC50 (anti-proliferation) JeKO-1 cells
Outline: as §1

[3] = biological target: BTK (Homo sapiens, UniProt Q06187); assay: BTK degradation, DC50 and Dmax of Table 1 (cell line not given); set-up: endogenous in cells; conditions: for DC50: concentration giving 50% reduction of BTK expression level
Chain of BTK (Q06187 whole entry): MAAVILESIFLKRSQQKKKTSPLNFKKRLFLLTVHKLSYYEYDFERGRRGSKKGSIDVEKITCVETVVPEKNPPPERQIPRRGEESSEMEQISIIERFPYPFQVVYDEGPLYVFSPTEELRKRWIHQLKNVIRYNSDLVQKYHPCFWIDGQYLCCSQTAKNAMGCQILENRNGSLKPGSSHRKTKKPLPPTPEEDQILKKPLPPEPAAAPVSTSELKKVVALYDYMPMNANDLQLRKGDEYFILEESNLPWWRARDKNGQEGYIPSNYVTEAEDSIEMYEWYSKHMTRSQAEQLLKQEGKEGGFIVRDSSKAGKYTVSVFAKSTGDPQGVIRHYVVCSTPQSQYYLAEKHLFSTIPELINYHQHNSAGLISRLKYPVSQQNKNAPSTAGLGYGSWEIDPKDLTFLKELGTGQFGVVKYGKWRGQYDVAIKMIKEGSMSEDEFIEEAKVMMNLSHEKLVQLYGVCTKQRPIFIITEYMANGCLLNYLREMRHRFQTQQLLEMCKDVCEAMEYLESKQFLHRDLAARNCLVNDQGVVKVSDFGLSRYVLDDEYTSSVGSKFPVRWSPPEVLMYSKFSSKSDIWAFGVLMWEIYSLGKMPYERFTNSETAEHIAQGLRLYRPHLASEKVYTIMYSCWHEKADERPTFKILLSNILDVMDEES

SMILES	IC50 [1] [nM]	IC50 [2] [nM]	Dmax [3] [%]	DC50 [3] [nM]
Nc1ncnc2c1c(-c1ccc(Oc3ccccc3)cc1)nn2[C@@H]1CCCN(CC2CCN(CCCN3CCN(c4ccc5c(c4)C(=O)N(C4CCC(=O)NC4=O)C5=O)CC3)CC2)C1 (stereo partly drawn) [Compound 137, 5-(4-(3-(4-(((R)-3-(4-amino-3-(4-phenoxyphenyl)-1H-pyrazolo[3,4-d]pyrimidin-1-yl)piperidin-1-yl)methyl)piperidin-1-yl)propyl)piperazin-1-yl)-2-(2,6-dioxopiperidin-3-yl)isoindoline-1,3-dione]	> 10000	> 10000	> 75	10 to 50
Nc1ncnc2c1c(-c1ccc(Oc3ccccc3)cc1)nn2[C@@H]1CCCN(C2CCN(CCN3CCC(c4ccc5c(c4)C(=O)N(C4CCC(=O)NC4=O)C5=O)CC3)CC2)C1 (stereo partly drawn) [Compound 149, 5-(1-(2-((R)-3-(4-amino-3-(4-phenoxyphenyl)-1H-pyrazolo[3,4-d]pyrimidin-1-yl)-[1,4′-bipiperidin]-1′-yl)ethyl)piperidin-4-yl)-2-(2,6-dioxopiperidin-3-yl)isoindoline-1,3-dione]	1000 to 10000	> 10000	> 90	10 to 50
Nc1ncnc2c1c(-c1ccc(Oc3ccccc3)cc1)nn2C1CCN(CC2CCN(C(=O)N3CCC(C4CCN(c5ccc6c(c5)CN(C5CCC(=O)NC5=O)C6=O)CC4)CC3)CC2)CC1 (stereo not shown) [Compound 40, 3-(5-(1′-(4-((4-(4-amino-3-(4-phenoxyphenyl)-1H-pyrazolo[3,4-d]pyrimidin-1-yl)piperidin-1-yl)methyl)piperidine-1-carbonyl)-[4,4′-bipiperidin]-1-yl)-1-oxoisoindolin-2-yl)piperidine-2,6-dione]	1000 to 10000	1000 to 10000	> 90	> 50
Nc1ncnc2c1c(-c1ccc(Oc3ccccc3)cc1)nn2C1CCN(C(=O)N2CCC(CCCN3CCN(c4ccc5c(c4)CN(C4CCC(=O)NC4=O)C5=O)CC3)CC2)CC1 (stereo not shown) [Compound 118, 3-(5-(4-(3-(1-(4-(4-amino-3-(4-phenoxyphenyl)-1H-pyrazolo[3,4-d]pyrimidin-1-yl)piperidine-1-carbonyl)piperidin-4-yl)propyl)piperazin-1-yl)-1-oxoisoindolin-2-yl)piperidine-2,6-dione]	> 10000	1000 to 10000	> 75	> 50
Nc1ncnc2c1c(-c1ccc(Oc3ccccc3)cc1)nn2[C@@H]1CCCN(CC2CCN(CCCN3CCC(c4ccc5c(c4)CN(C4CCC(=O)NC4=O)C5=O)CC3)CC2)C1 (stereo partly drawn) [Compound 140, 3-(5-(1-(3-(4-(((R)-3-(4-amino-3-(4-phenoxyphenyl)-1H-pyrazolo[3,4-d]pyrimidin-1-yl)piperidin-1-yl)methyl)piperidin-1-yl)propyl)piperidin-4-yl)-1-oxoisoindolin-2-yl)piperidine-2,6-dione]	1000 to 10000	> 10000	> 75	10 to 50
Nc1ncnc2c1c(-c1ccc(Oc3ccccc3)cc1)nn2[C@@H]1CCCN(C2CCN(C(=O)N3CCN(CCN4CCC(c5ccc6c(c5)C(=O)N(C5CCC(=O)NC5=O)C6=O)CC4)CC3)CC2)C1 (stereo partly drawn) [Compound 179, 5-(1-(2-(4-((R)-3-(4-amino-3-(4-phenoxyphenyl)-1H-pyrazolo[3,4-d]pyrimidin-1-yl)-[1,4′-bipiperidine]-1′-carbonyl)piperazin-1-yl)ethyl)piperidin-4-yl)-2-(2,6-dioxopiperidin-3-yl)isoindoline-1,3-dione]	1000 to 10000	> 10000	> 75	10 to 50
Nc1ncnc2c1c(-c1ccc(Oc3ccccc3)cc1)nn2[C@@H]1CCCN(CC2CCN(CCCC3CCN(c4ccc5c(c4)CN(C4CCC(=O)NC4=O)C5=O)CC3)CC2)C1 (stereo partly drawn) [Compound 142, 3-(5-(4-(3-(4-(((R)-3-(4-amino-3-(4-phenoxyphenyl)-1H-pyrazolo[3,4-d]pyrimidin-1-yl)piperidin-1-yl)methyl)piperidin-1-yl)propyl)piperidin-1-yl)-1-oxoisoindolin-2-yl)piperidine-2,6-dione]	1000 to 10000	> 10000	> 75	10 to 50
Nc1ncnc2c1c(-c1ccc(Oc3ccccc3)cc1)nn2[C@@H]1CCCN(C(=O)N2CCN(CCN3CCN(c4ccc5c(c4)CN(C4CCC(=O)NC4=O)C5=O)CC3)CC2)C1 (stereo partly drawn) [Compound 66, 3-(5-(4-(2-(4-((R)-3-(4-amino-3-(4-phenoxyphenyl)-1H-pyrazolo[3,4-d]pyrimidin-1-yl)piperidine-1-carbonyl)piperazin-1-yl)ethyl)piperazin-1-yl)-1-oxoisoindolin-2-yl)piperidine-2,6-dione]	1000 to 10000	< 1000	> 90	< 10
Nc1ncnc2c1c(-c1ccc(Oc3ccccc3)cc1)nn2C1CCN(CC2CCN(C(=O)N3CCC(N4CCN(c5ccc6c(c5)CN(C5CCC(=O)NC5=O)C6=O)CC4)CC3)CC2)CC1 (stereo not shown) [Compound 38, 3-(5-(4-(1-(4-((4-(4-amino-3-(4-phenoxyphenyl)-1H-pyrazolo[3,4-d]pyrimidin-1-yl)piperidin-1-yl)methyl)piperidine-1-carbonyl)piperidin-4-yl)piperazin-1-yl)-1-oxoisoindolin-2-yl)piperidine-2,6-dione]	< 1000	< 1000	> 90	10 to 50
Nc1ncnc2c1c(-c1ccc(Oc3ccccc3)cc1)nn2C1CCN(C(=O)N2CCC(c3ccc4c(c3)C(=O)N(C3CCC(=O)NC3=O)C4=O)CC2)CC1 (stereo not shown) [Compound 77, 5-(1-(4-(4-amino-3-(4-phenoxyphenyl)-1H-pyrazolo[3,4-d]pyrimidin-1-yl)piperidine-1-carbonyl)piperidin-4-yl)-2-(2,6-dioxopiperidin-3-yl)isoindoline-1,3-dione]	> 10000	> 10000	> 50	> 50
Nc1ncnc2c1c(-c1ccc(Oc3ccccc3)cc1)nn2[C@@H]1CCCN(C2CCN(CCCN3CCN(c4ccc5c(c4)CN(C4CCC(=O)NC4=O)C5=O)CC3)CC2)C1 (stereo partly drawn) [Compound 152, 3-(5-(4-(3-((R)-3-(4-amino-3-(4-phenoxyphenyl)-1H-pyrazolo[3,4-d]pyrimidin-1-yl)-[1,4′-bipiperidin]-1′-yl)propyl)piperazin-1-yl)-1-oxoisoindolin-2-yl)piperidine-2,6-dione]	> 10000	> 10000	> 75	> 50
Nc1ncnc2c1c(-c1ccc(Oc3ccccc3)cc1)nn2[C@@H]1CCCN(CC2CCN(CCC3CCN(c4ccc5c(c4)C(=O)N(C4CCC(=O)NC4=O)C5=O)CC3)CC2)C1 (stereo partly shown) [Compound 131]	1000 to 10000	1000 to 10000	> 75	10 to 50
Nc1ncnc2c1c(-c1ccc(Oc3ccccc3)cc1)nn2[C@@H]1CCCN(C2CCN(C(=O)N3CCC(C4CCN(c5ccc6c(c5)CN(C5CCC(=O)NC5=O)C6=O)CC4)CC3)CC2)C1 (stereo partly drawn) [Compound 164, 3-(5-(1′-((R)-3-(4-amino-3-(4-phenoxyphenyl)-1H-pyrazolo[3,4-d]pyrimidin-1-yl)-[1,4′-bipiperidine]-1′-carbonyl)-[4,4′-bipiperidin]-1-yl)-1-oxoisoindolin-2-yl)piperidine-2,6-dione]	1000 to 10000	> 10000	> 75	10 to 50
